Reference: patent US6835370B2, “Diagnosis and treatment of malignant neoplasms” (Rhode Island Hospital, priority 1999, dated 2004)

Tests used:
AAH = experiment: MICE assay of AAH immunoreactivity in transfected cells; type: cell-based; details: relative to cells transfected with random oligonucleotide
Description: Inhibition of HAAH gene expression is enhanced by contacting cells with a phosphorothioate derivative of the HAAH antisense. Phosphorothioate antisense derivatives are made using methods well known in the art. The MILQ assay was used to measure gene expression resulting from antisense oligonucleotide gene delivery. Cells were contacted with AAH Location-6 antisense DNA, and AAH protein expression was measured using methods known in the art, e.g., the MICE assay (de la Monte, et al, 1999, Biotechniques), to determine if it was inhibited by hybridization with the oligonucleotide. The MICE assay is used to measure inimunoreactivity in cultured cells without the need to extract proteins or perform gel electrophoresis. This assay is more sensitive than Western blot analysis. Using the MICE assay, AAH immunoreactivity was assessed in cells transfected with non-relevant (random) oligonucleotide sequences, specific antisense oligonucleotides (Location-6), and a phosphorothioate Location-6 antisense oligonucleotide.

human AAH cDNA (pHAAH) = experiment: in vitro cell free transcription translation assay (TNT Quick Coupled System); type: biochemical; details: 100× or 1000× excess oligonucleotide; rabbit reticulocyte lysate, [35S] methionine, SDS-PAGE autoradiography
Description: Using an in vitro cell free transcription translation assay (TNT Quick Coupled System), the human AAH cDNA (pHAAH) was used to synthesize AAH protein. […] The translated product was labeled with [^35S] methionine in the presence of reaction buffer, RNA polymerase, amino acid mixture, and ribonuclease inhibitor (RNAsin). The products were analyzed by SDS-PAGE followed by autoradiography. A luciferase (Luc) expressing plasmid was used as a positive control. In the second and third lanes, synthesis of the ˜85 kD AAH protein is shown (AAH, arrow) using 1 or 2 micrograms of plasmid as the template and the T7 DNA-dependent RNA polymerase primer/promoter to generate mRNA.

HAAH gene expression = experiment: insulin stimulation of HAAH gene expression in FOCUS HCC cells; type: cell-based, human; details: 20 and 40 U insulin, serum free medium, after 16 hr of serum starvation
Excerpt: IRS-1 mediated signal transduction pathway is activated in 95% of human HCC tumors compared to the adjacent uninvolved liver tissue. HAAH is a downstream effector gene involved in this signal transduction pathway. […] A high level of HAAH protein is expressed in HCC and cholangiocarcinoma compared to normal hepatocytes and bile ducts.

AAH in SH-Sy5y cells = experiment: Western blot of AAH expression in treated SH-Sy5y cells; type: cell-based, Human; details: up to 7 days, FIG. 5B
Description: (§1) Studies were conducted to determine whether AAH expression was modulated with neurite (filopodia) extension (sprouting) as occurs with invasive growth of malignant neoplasms. Human PNET2 CNS-derived and SH-Sy5y neuroblastoma cells were cultured and stimulated for 0, 1, 2, 3, 5, or 7 days with 100 nM phorbol […] or 10 μM retinoic acid to induce sprouting. In addition, to examine the effects of neurite retraction on AAH expression, subconfluent cultures were treated for 24 hours with low concentrations (10-40 μM) of H2O2. For both studies, AAH expression was evaluated by Western blot analysis using the an HAAH-specific antibody.
Cells grown in 10 cm^2 dishes were lysed and homogenized in a standard radioimmunoprecipitation assay RIPA buffer containing protease and phosphatase inhibitors. The supernatants collected after centrifuging the samples at 12,000×g for 10 minutes to remove insoluble debris were used for Western blot analysis. Protein concentration was measured using the BCA assay (Pierce Chemical Co, Rockford, Ill.). […] Immunoreactivity was detected with horseradish peroxidase conjugated IgG (Pierce Chemical Co, Rockford, Ill.) and enhanced chemiluminescence reagents. To quantify the levels of protein expression, non-saturated autoradiographs were subjected to volume densitometry using NIH Image software, version 1.6. […]

AAH in PNET2 cells = experiment: Western blot of AAH expression in treated PNET2 cells; type: cell-based, Human
Description: as §1, with “In addition, to examine the effects of neurite retraction on AAH expression, subconfluent cultures were treated for 24 hours with low concentrations (10-40 μM) of H2O2.” left out
Cells grown in 10 cm^2 dishes were lysed and homogenized in a standard radioimmunoprecipitation assay RIPA buffer containing protease and phosphatase inhibitors. The supernatants collected after centrifuging the samples at 12,000×g for 10 minutes to remove insoluble debris were used for Western blot analysis. Protein concentration was measured using the BCA assay (Pierce Chemical Co, Rockford, Ill.). Samples containing 60 μg of protein were electrophoresed in sodium dodecyl sulfate polyacrylamide gels (SDS-PAGE) and subjected to Western blot analysis. Replicate blots were probed with the individual antibodies. Immunoreactivity was detected with horseradish peroxidase conjugated IgG (Pierce Chemical Co, Rockford, Ill.) and enhanced chemiluminescence reagents. To quantify the levels of protein expression, non-saturated autoradiographs were subjected to volume densitometry using NIH Image software, version 1.6. […]

PNET2 cells = experiment: Trypan blue dye exclusion viability; type: cell-based, Human; details: 24 hours, sub-lethal concentrations of H2O2
Description: FIGS. 5A-D are bar graphs showing increased AAH expression in PNET2 (FIGS. 5A, 5C) and SH-Sy5y (FIG. 5B) cells treated with retinoic acid (FIGS. 5A, 5B) or phorbol ester myristate (PMA; FIG. 5C) to induce neurite outgrowth as occurs during tumor cell invasion. The cells were treated with 10 μM retinoic acid or 100 nM PMA for 0, 1, 2, 3, 4, or 7 days. Cell lysates were analyzed by Western blot analysis using an HAAH-specific monoclonal antibody to detect the 85 kDa AAH protein. The levels of immunoreactivity were measured by volume densitometry (arbitrary units). The graphs indicate the mean±S.D. of results obtained from three separate experiments. In FIG. 5D, PNET2 cells were treated for 24 hours with sub-lethal concentrations of H2O2 to induce neurite retraction. […] Similar results were obtained for SH-Sy5y cells.
To examine the effect of AAH expression on neurite retraction, PNET2 and SH-Sy5y cells were treated with low concentrations (8-40 μM) of H2O2.

## 5′ TTACGCTGGGCCATTGCACG 3′ (antisense TTACGCTGGGCCATTGCACG; listed as DNA, chemistry not given here) [Location-6, AAH antisense oligonucleotide (20 mer)]
AAH
  AAH immunoreactivity: reduced levels

## 5′ ATCATGCAATGGCCCAGCGTAA 3′ (sense ATCATGCAATGGCCCAGCGTAA; listed as DNA, chemistry not given here) [sense oligonucleotide, sense oligonucleotide beginning at Location-3, control]
Human AAH cDNA (pHAAH)
  inhibition of AAH protein synthesis: no effect

## Insulin: insulin used to stimulate FOCUS HCC cells
HAAH gene expression
  HAAH gene expression: upregulation

## CCCCCCCCCCCCCC(=O)O[C@@H]1[C@@H](C)[C@@]2(O)[C@@H](C=C(CO)C[C@]3(O)C(=O)C(C)=C[C@@H]23)[C@@H]2C(C)(C)[C@]12OC(C)=O [PMA, phorbol ester myristate]
AAH in SH-Sy5y cells
  RA- or PMA-stimulated increases in AAH expression: highest after 7 days of treatment
AAH in PNET2 cells; 24 hours after exposure, 10 μM retinoic acid or 100 nM PMA
  increase in levels of AAH protein: at least two-fold

## OO [H2O2]
PNET2 cells
  Viability of the cells: greater than 90%
AAH in PNET2 cells; 24 hours, 8-40 μM H2O2, FIG. 5D
  levels of AAH protein: dose-dependent reductions
